The values that follow come from patent publication US8481732B2 (Incyte Corporation, priority 2009, dated 2013).

Each structure is given as a SMILES string.

T1 sequence (Q9H3N8 whole entry): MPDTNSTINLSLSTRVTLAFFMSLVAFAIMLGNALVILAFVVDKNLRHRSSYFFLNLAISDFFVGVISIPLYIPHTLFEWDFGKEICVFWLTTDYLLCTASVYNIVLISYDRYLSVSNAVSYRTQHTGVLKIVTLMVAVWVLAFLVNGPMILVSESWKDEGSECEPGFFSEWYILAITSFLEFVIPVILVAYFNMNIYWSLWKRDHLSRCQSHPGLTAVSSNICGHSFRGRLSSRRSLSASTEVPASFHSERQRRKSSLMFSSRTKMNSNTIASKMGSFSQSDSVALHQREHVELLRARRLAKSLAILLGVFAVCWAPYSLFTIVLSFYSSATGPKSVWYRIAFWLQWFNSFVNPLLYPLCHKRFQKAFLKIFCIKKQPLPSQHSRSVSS

The assay addresses T1, histamine H4 receptor (Homo sapiens, UniProt Q9H3N8).
T1 construct: expressed in transfected cells; host or cells: HEK293SFM cells (membrane preparation)
As to the kind of experiment: H4 Membrane Binding Assay (3H-Histamine displacement). Particulars: membranes of recombinant HEK293SFM cells, 10 nM 3H-Histamine, 1.5 hr at room temperature. The protocol:
Recombinant HEK293SFM cells expressing human H1, H2, H3, H4 or mouse H4 were harvested (Packard Filtermate Harvester) in ice-cold Tris-HCl, (50 mM, pH 7.5, Sigma) with protease inhibitors (Roche) and homogenized with a Polytron homogenizer. The homogenate was centrifuged for 5 minutes at 1000 g to remove nuclei and unbroken cells. The supernatant was centrifuged at 50000 g for 30 minutes, and the resulting pellet was re-suspended in ice-cold Tris-HCl (50 mM, pH 7.5). […] Nonspecific binding was determined by inclusion of 1000× unlabeled ligands. The bound radioactivity was separated by filtration through polyethyleneimine-treated GF/B filters (Perkin Elmer). The filters were washed eight times with ice-cold Tris-HCl (50 mM, pH 7.5), and radioactivity retained on the filters was measured by liquid scintillation counting. The binding data were evaluated with Prism.
Take `CN1CCN(c2cc(-c3ccc4c(c3)CN(C(=O)CC3CCC3)CC4)nc(N)n2)CC1` [Example 109, 4-[2-(Cyclobutylacetyl)-1,2,3,4-tetrahydroisoquinolin-7-yl]-6-(4-methylpiperazin-1-yl)pyrimidin-2-amine]: the IC50 is 9.6 nM. As to `CN1CCN(c2nc(N)nc3cc(C(=O)NC(Cc4cccc(OCc5ccc(OC(F)(F)F)cc5)c4)C(=O)N(C)C)ccc23)CC1` (stereo not shown) [Example 177, 2-Amino-N-[2-(dimethylamino)-2-oxo-1-(3-{[4-(trifluoromethoxy)benzyl]oxy}benzyl)ethyl]-4-(4-methylpiperazin-1-yl)quinazoline-7-carboxamide], the IC50 worked out at 56 nM. Next, `Cc1cccc(Oc2cccc(CNC(=O)c3ccc4c(N5CCN(C)CC5)nc(N)nc4c3)c2)c1C#N` [Example 189, 2-Amino-N-[3-(2-cyano-3-methylphenoxy)benzyl]-4-(4-methylpiperazin-1-yl)quinazoline-7-carboxamide]: 6.6 nM. Turning to `CCOC(=O)c1cccnc1Oc1cccc(CNC(=O)c2ccc3c(N4CCN(C)CC4)nc(N)nc3c2)c1` [Example 184, Ethyl 2-{3-[({[2-amino-4-(4-methylpiperazin-1-yl)quinazolin-7-yl]carbonyl}amino)methyl]phenoxy}nicotinate], the IC50 turned out to be 43 nM. Next, `CN1CCN(c2nc(N)nc3cc(C(=O)NC(C)(C)c4ccccc4)ccc23)CC1` [Example 23, 2-Amino-N-(1-methyl-1-phenylethyl)-4-(4-methylpiperazin-1-yl)quinazoline-7-carboxamide]: 384 nM. As to `CN1CCN(c2cc(-c3ccc4c(c3)CN(C(=O)NC3CCCCC3)CC4)nc(N)n2)CC1` [Example 95, 7-[2-Amino-6-(4-methylpiperazin-1-yl)pyrimidin-4-yl]-N-cyclohexyl-3,4-dihydroisoquinoline-2(1H)-carboxamide], the IC50 came to 24 nM. With `CN1CCN(c2nc(N)nc3cc(C(=O)NC(Cc4cccc(OCc5cccc(C#N)c5)c4)C(=O)N(C)C)ccc23)CC1` (stereo not shown) [Example 175, 2-Amino-N-[1-{3-[(3-cyanobenzyl)oxy]benzyl}-2-(dimethylamino)-2-oxoethyl]-4-(4-methylpiperazin-1-yl)quinazoline-7-carboxamide], the IC50 came out at 18 nM. In the case of `COCC1(NC(=O)N2CCc3ccc(-c4cc(N5CCN(C)CC5)nc(N)n4)cc3C2)CCCC1` [Example 94, 7-[2-Amino-6-(4-methylpiperazin-1-yl)pyrimidin-4-yl]-N-[1-(methoxymethyl)cyclopentyl]-3,4-dihydroisoquinoline-2(1H)-carboxamide] it was 149 nM. Next, `CN1CCN(c2cc(-c3ccc4c(c3)CN(C(=O)Cc3ccc(F)cc3)CC4)nc(N)n2)CC1` [Example 65, 4-{2-[(4-Fluorophenyl)acetyl]-1,2,3,4-tetrahydroisoquinolin-7-yl}-6-(4-methylpiperazin-1-yl)pyrimidin-2-amine]: 25 nM. Take `C[C@H](NC(=O)c1ccc2c(N3CCN(C)CC3)nc(N)nc2c1)c1ccc2ccccc2c1` [Example 22, (S)-2-Amino-4-(4-methylpiperazin-1-yl)-N-(1-(naphthalen-2-yl)ethyl)quinazoline-7-carboxamide]: the IC50 was 128 nM. Consider `COc1ccccc1-c1ccc(C[C@H](NC(=O)c2ccc3c(N4CCN(C)CC4)nc(N)nc3c2)C(=O)N(C)C)cc1` [Example 152, 2-Amino-N-{(1S)-2-(dimethylamino)-1-[(2′-methoxybiphenyl-4-yl)methyl]-2-oxoethyl}-4-(4-methylpiperazin-1-yl)quinazoline-7-carboxamide], for which the IC50 amounted to 10 nM. Next, `COc1ccc(C#N)c(Oc2cccc(CC(NC(=O)c3ccc4c(N5CCN(C)CC5)nc(N)nc4c3)C(=O)N(C)C)c2)c1` (stereo not shown) [Example 170, 2-Amino-N-[1-[3-(2-cyano-5-methoxyphenoxy)benzyl]-2-(dimethylamino)-2-oxoethyl]-4-(4-methylpiperazin-1-yl)quinazoline-7-carboxamide]: 23 nM; `CN1CCN(c2nc(N)nc3cc(C(=O)NC(Cc4cccc(Oc5ccc(Cl)cc5C#N)c4)C(=O)N(C)C)ccc23)CC1` (stereo not shown) [Example 172, 2-Amino-N-[1-[3-(4-chloro-2-cyanophenoxy)benzyl]-2-(dimethylamino)-2-oxoethyl]-4-(4-methylpiperazin-1-yl)quinazoline-7-carboxamide]: 26 nM.

Regarding `CN1CCN(c2nc(N)nc3cc(C(=O)NCCCc4ccccc4)ccc23)CC1` [Example 38, 2-Amino-4-(4-methylpiperazin-1-yl)-N-(3-phenylpropyl)quinazoline-7-carboxamide], the IC50 came to 106 nM. In the case of `CC(NC(=O)c1ccc2c(N3CCN(C)CC3)nc(N)nc2c1)c1ccc(Oc2ccccc2)cc1` (stereo not shown) [Example 29, 2-Amino-4-(4-methylpiperazin-1-yl)-N-[1-(4-henoxyphenyl)ethyl]quinazoline-7-carboxamide] it was 157 nM. Turning to `COc1ccc([C@@H](C)NC(=O)c2ccc3c(N4CCN(C)CC4)nc(N)nc3c2)cc1` [Example 30, 2-Amino-N-[(1R)-1-(4-methoxyphenyl)ethyl]-4-(4-methylpiperazin-1-yl)quinazoline-7-carboxamide], the IC50 was determined as 492 nM. `CN1CCN(c2cc(-c3ccc4c(c3)CN(C(=O)NC3CCc5ccccc53)CC4)nc(N)n2)CC1` (stereo not shown) [Example 82, 7-[2-Amino-6-(4-methylpiperazin-1-yl)pyrimidin-4-yl]-N-(2,3-dihydro-1H-inden-1-yl)-3,4-dihydroisoquinoline-2(1H)-carboxamide]: the IC50 was 67 nM.

In the case of `CCOC(=O)[C@@H]1CCCC[C@@H]1NC(=O)N1CCc2ccc(-c3cc(N4CCN(C)CC4)nc(N)n3)cc2C1` (relative stereo) [Example 53, Ethyl cis-2-({[7-[2-amino-6-(4-methylpiperazin-1-yl)pyrimidin-4-yl]-3,4-dihydroisoquinolin-2(1H)-yl]carbonyl}amino)cyclohexanecarboxylate], the IC50 came to 107 nM. In the case of `Cc1cccnc1N1CCC(NC(=O)N2CCc3ccc(-c4cc(N5CCN(C)CC5)nc(N)n4)cc3C2)CC1` [Example 42, 7-[2-Amino-6-(4-methylpiperazin-1-yl)pyrimidin-4-yl]-N-[1-(3-methylpyridin-2-yl)piperidin-4-yl]-3,4-dihydroisoquinoline-2(1H)-carboxamide] it was 103 nM; in that of `CN1CCN(c2nc(N)nc3cc(C(=O)NC(Cc4ccc(-c5ccccc5)s4)C(=O)N(C)C)ccc23)CC1` (stereo not shown) [Example 147, 2-Amino-N-{2-(dimethylamino)-2-oxo-1-[(5-phenyl-2-thienyl)methyl]ethyl}-4-(4-methylpiperazin-1-yl)quinazoline-7-carboxamide], 71 nM; in that of `CN1CCN(c2nc(N)nc3cc(C(=O)NC(Cc4ccc5c(c4)OC(F)(F)O5)C(=O)N(C)C)ccc23)CC1` (single isomer, unassigned) [Example 145A], 519 nM. Next, `CN1CCN(c2nc(N)nc3cc(C(=O)N[C@@H](Cc4ccc(-c5cncc(C#N)c5)cc4)C(=O)N(C)C)ccc23)CC1` [Example 156, 2-Amino-N-[(1S)-1-[4-(5-cyanopyridin-3-yl)benzyl]-2-(dimethylamino)-2-oxoethyl]-4-(4-methylpiperazin-1-yl)quinazoline-7-carboxamide]: 41 nM.

In general, IC50 refers to the midpoint of a concentration-inhibition curve.
